O=C(O)CSc1ccc2ccccc2c1
solubility (mole fraction)
Conditions	278.15 K	283.15 K	288.15 K	293.15 K	298.15 K	303.15 K	308.15 K	313.15 K	318.15 K	323.15 K
in DMF	0.00524	0.00586	0.0066	0.00738	0.00828	0.00917	0.0101	0.0112	0.0122	0.0135
in ethanol	0.0014	0.0018	0.00234	0.00282	0.00336	0.00394	0.00456	0.0052	0.00584	0.00669
in isopropanol	0.000227	0.0003	0.000383	0.000481	0.00058	0.000682	0.000801	0.000919	0.00105	0.0012
in methanol	0.00053	0.000675	0.000828	0.00102	0.00119	0.0014	0.0016	0.0018	0.00204	0.00235
in water	1.42e-06	1.95e-06	2.54e-06	3.16e-06	3.88e-06	4.53e-06	5.33e-06	6.1e-06	7e-06	8.05e-06

Reference: BigSolDB 2.1
